Laboratory results reported in patent US6737383B1, “Herbicidal oxadiazolidines” (priority 1999, dated 2004).

Tests used:
wild oat = assay: Test E wild oat; assay type: in vivo, Avena fatua; settings: Preemergence
giant foxtail = assay: Test B pre/postemergence giant foxtail; assay type: in vivo, Setaria faberii
Summary of the method: (§1)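 Response is a visual 0-to-10 score relative to untreated plants, where 0 means no effect and 10 means complete control, taken twelve to sixteen days after application. Treatments went onto soil at planting and onto foliage of 1- to 4-leaf plants, using a surfactant-containing non-phytotoxic solvent.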

winter wheat [1] = assay: Test E winter wheat; assay type: in vivo, Triticum aestivum; settings: Preemergence
green foxtail = assay: Test E green foxtail; assay type: in vivo, Setaria viridis; settings: Preemergence
crabgrass = assay: Test B pre/postemergence crabgrass; assay type: in vivo, Digitaria sanguinalis
Summary of the method: as §1

wheat = assay: Test B pre/postemergence wheat; assay type: in vivo, Triticum aestivum
Summary of the method: as §1

tall mallow = assay: Test D tall mallow; assay type: in vivo, Malva sylvestris; settings: Postemergence, 0 to 100 scale
blackgrass = assay: Test E blackgrass; assay type: in vivo, Alopecurus myosuroides; settings: Preemergence
duck salad = assay: Test B flood test duck salad; assay type: in vivo, Heteranthera limosa
Summary of the method: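 Flood test on plants grown to the 2-leaf stage; treated plants kept in greenhouse twelve to sixteen days, then visually rated against controls on a 0 (no effect) to 10 (complete control) scale.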

Italian ryegrass = assay: Test E Italian ryegrass; assay type: in vivo, Lolium multiflorum; settings: Preemergence
winter barley = assay: Test E winter barley; assay type: in vivo, Hordeum vulgare; settings: Preemergence
winter wheat [2] = assay: Test E winter wheat; assay type: in vivo, Triticum aestivum; settings: Postemergence; for Plant response rating, Wheat (winter): 0 to 100 scale, 0 is no effect, 100 is complete control
Summary of the method: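 Greenhouse test: for postemergence, foliar application at 1- to 4-leaf stage; compound in non-phytotoxic solvent with surfactant. Rating is visual, relative to untreated controls, about 21 to 28 days after treatment.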

[3] = Rate 125 g/ha, 0 to 100 scale (0 no effect, 100 complete control)
[4] = Rate 500 g/ha, 0 to 100 scale where 0 is no effect and 100 is complete control
[5] = Preemergence, Rate 62 g/ha, scale of 0 to 10 where 0 is no effect and 10 is complete control
[6] = Preemergence, Rate 250 g/ha, scale of 0 to 10 where 0 is no effect and 10 is complete control
[7] = Preemergence, Rate 500 g/ha, scale of 0 to 10 where 0 is no effect and 10 is complete control
[8] = Rate 62 g/ha, Postemergence, scale of 0 to 10 where 0 is no effect and 10 is complete control
[9] = Rate 125 g/ha, Preemergence, scale of 0 to 10 where 0 is no effect and 10 is complete control
[10] = Rate 500 g/ha, Postemergence, scale 0 to 10, 0 no effect, 10 complete control
[11] = Rate 16 g/ha, 0 no injury, 100 complete control
[12] = Rate 32 g/ha, 0 no injury, 100 complete control
[13] = Rate 64 g/ha, 0 no injury, 100 complete control
[14] = Rate 125 g/ha, 0 no injury, 100 complete control
[15] = Postemergence, Rate 125 g/ha, scale 0 to 10, 0 is no effect, 10 is complete control
[16] = Postemergence, Rate 250 g/ha, scale 0 to 10, 0 is no effect, 10 is complete control
[17] = Preemergence, Rate 62 g/ha, scale 0 to 10 (0 no effect, 10 complete control)

CC(C)N(C(=O)n1oc(=O)n(C2CC2)c1=O)c1ccccc1 [Compound 243] was tested, and the “Plant response rating, Wild oat” value (wild oat; [3]) was 60, the “Wild oat plant response rating (0 to 100 scale)” value (wild oat; Rate 250 g/ha) was 55 and the “Plant response rating, Wild oat” value (wild oat; [4]) was 90. For the same compound, the “Giant foxtail plant response rating” value (giant foxtail; [5]) was 10, the “Giant foxtail plant response rating” value (giant foxtail; [6]) was 10 and the “Plant response rating, Giant foxtail” value (giant foxtail; [7]) was 10. The “Giant foxtail plant response rating” value (giant foxtail; [8]) was 3, the “Giant foxtail plant response rating” value (giant foxtail; [9]) was 10 and the “Plant response rating (0 to 10; 0 is no effect, 10 is complete control), Giant foxtail” value (giant foxtail; Rate 250 g/ha, Postemergence) was 8. The “Giant foxtail plant response rating” value (giant foxtail; [10]) was 8, the “Plant response rating, Wheat (winter)” value (winter wheat [1]; [3]) was 50 and the “Wheat (winter) plant response rating (0 to 100 scale)” value (winter wheat [1]; Rate 250 g/ha) was 70. For the same compound, the “Plant response rating, Wheat (winter)” value (winter wheat [1]; [4]) was 75, the “Plant response rating, Green foxtail” value (green foxtail; [3]) was 75 and the “Green foxtail plant response rating (0 to 100 scale)” value (green foxtail; Rate 250 g/ha) was 100. The “Plant response rating, Green foxtail” value (green foxtail; [4]) was 100, the “Crabgrass plant response rating” value (crabgrass; [5]) was 7 and the “Crabgrass plant response rating” value (crabgrass; [6]) was 9. For the same compound, the “Plant response rating, Crabgrass” value (crabgrass; [7]) was 10, the “Crabgrass plant response rating” value (crabgrass; [8]) was 3 and the “Crabgrass plant response rating” value (crabgrass; [9]) was 8. For the same compound, the “Plant response rating (0 to 10; 0 is no effect, 10 is complete control), Crabgrass” value (crabgrass; Rate 250 g/ha, Postemergence) was 9, the “Crabgrass plant response rating” value (crabgrass; [10]) was 9 and the “Wheat plant response rating” value (wheat; [5]) was 5. For the same compound, the “Wheat plant response rating” value (wheat; [6]) was 8, the “Plant response rating, Wheat” value (wheat; [7]) was 9 and the “Wheat plant response rating” value (wheat; [8]) was 2. For the same compound, the “Wheat plant response rating” value (wheat; [9]) was 8, the “Wheat plant response rating” value (wheat; [10]) was 8 and the “Plant response rating, Tall Mallow” value (tall mallow; [11]) was 50. For the same compound, the “Plant response rating, Tall Mallow” value (tall mallow; [12]) was 20, the “Tall Mallow plant response rating” value (tall mallow; [13]) was 30 and the “Tall Mallow plant response rating” value (tall mallow; [14]) was 40. The “Plant response rating, Tall Mallow” value (tall mallow; Rate 250 g/ha) was 60, the “Plant response rating, Blackgrass” value (blackgrass; [3]) was 65 and the “Blackgrass plant response rating (0 to 100 scale)” value (blackgrass; Rate 250 g/ha) was 85. The “Plant response rating, Blackgrass” value (blackgrass; [4]) was 100, the “Ducksalad plant response rating” value (duck salad; Rate 62 g/ha, headed Pre-emergence (flood test species), scale 0 to 10 (0 no effect, 10 complete control)) was 0 and the “Ducksalad plant response rating” value (duck salad; Rate 125 g/ha, Pre-emergence, flood test species, scale 0 to 10 where 0 is no effect and 10 is complete control) was 0. For the same compound, the “Ducksalad plant response rating” value (duck salad; Rate 250 g/ha, Pre-emergence, flood-test species, scale 0 to 10, 0 is no effect, 10 is complete control) was 0, the “Ducksalad plant response rating” value (duck salad; Rate 500 g/ha, Pre-emergence, flood test species, scale 0 to 10 (0 no effect, 10 complete control)) was 0 and the “Plant response rating, I. Ryegrass” value (Italian ryegrass; [3]) was 70. The “I. Ryegrass plant response rating (0 to 100 scale)” value (Italian ryegrass; Rate 250 g/ha) was 85, the “Plant response rating, I. Ryegrass” value (Italian ryegrass; [4]) was 100 and the “Plant response rating, Barley (winter)” value (winter barley; [3]) was 30. For the same compound, the “Barley (winter) plant response rating (0 to 100 scale)” value (winter barley; Rate 250 g/ha) was 60, the “Plant response rating, Barley (winter)” value (winter barley; [4]) was 70 and the “Plant response rating, Wheat (winter)” value (winter wheat [2]; Rate 125 g/ha) was 70. For the same compound, the “Wheat (winter) plant response rating” value (winter wheat [2]; Rate 250 g/ha, 0 to 100 scale where 0 is no effect and 100 is complete control) was 75 and the “Plant response rating, Wheat (winter)” value (winter wheat [2]; Rate 500 g/ha) was 80.
CC(C)N(C(=O)n1oc(=O)n(C2(C)CC2)c1=O)c1ccccc1 [Compound 360] was tested, and the “Plant response rating, Giant foxtail” value (giant foxtail; [15]) was 8, the “Plant response rating, Giant foxtail” value (giant foxtail; [16]) was 8 and the “Plant response rating, Giant foxtail” value (giant foxtail; [17]) was 10. For the same compound, the “Giant foxtail plant response rating (0 to 10 scale)” value (giant foxtail; Preemergence, Rate 125 g/ha) was 10, the “Giant foxtail plant response rating” value (giant foxtail; [6]) was 10 and the “Giant foxtail plant response rating” value (giant foxtail; [7]) was 10. For the same compound, the “Giant foxtail plant response rating” value (giant foxtail; [8]) was 8, the “Plant response rating, Giant foxtail” value (giant foxtail; [10]) was 8 and the “Plant response rating, Crabgrass” value (crabgrass; [15]) was 2. The “Plant response rating, Crabgrass” value (crabgrass; [16]) was 5, the “Plant response rating, Crabgrass” value (crabgrass; [17]) was 9 and the “Crabgrass plant response rating (0 to 10 scale)” value (crabgrass; Preemergence, Rate 125 g/ha) was 10. For the same compound, the “Crabgrass plant response rating” value (crabgrass; [6]) was 10, the “Crabgrass plant response rating” value (crabgrass; [7]) was 10 and the “Crabgrass plant response rating” value (crabgrass; [8]) was 2. The “Plant response rating, Crabgrass” value (crabgrass; [10]) was 5, the “Plant response rating, Wheat” value (wheat; [15]) was 4 and the “Plant response rating, Wheat” value (wheat; [16]) was 4. For the same compound, the “Plant response rating, Wheat” value (wheat; [17]) was 3, the “Wheat plant response rating (0 to 10 scale)” value (wheat; Preemergence, Rate 125 g/ha) was 6 and the “Wheat plant response rating” value (wheat; [6]) was 7. For the same compound, the “Wheat plant response rating” value (wheat; [7]) was 8, the “Wheat plant response rating” value (wheat; [8]) was 3 and the “Plant response rating, Wheat” value (wheat; [10]) was 6. The “Plant response rating, Tall Mallow” value (tall mallow; [11]) was 0, the “Plant response rating, Tall Mallow” value (tall mallow; [12]) was 0 and the “Tall Mallow plant response rating” value (tall mallow; [13]) was 40. For the same compound, the “Tall Mallow plant response rating” value (tall mallow; [14]) was 60, the “Plant response rating, Tall Mallow” value (tall mallow; Rate 250 g/ha) was 90 and the “Plant response rating, Ducksalad” value (duck salad; Postemergence (flood test), Rate 125 g/ha, scale 0 to 10, 0 is no effect, 10 is complete control) was 0. The “Ducksalad plant response rating” value (duck salad; Rate 62 g/ha, Postemergence (flood test species), scale of 0 to 10 where 0 is no effect and 10 is complete control) was 0, the “Plant response rating, Ducksalad” value (duck salad; Rate 500 g/ha, listed under Postemergence (flood test species), scale 0 to 10, 0 no effect, 10 complete control) was 0 and the “Plant response rating, Ducksalad” value (duck salad; flood test species, listed under Postemergence, Rate 250 g/ha, scale 0 to 10, 0 is no effect, 10 is complete control) was 0.
